Results: article PMC8113459, “Selective inhibition of cullin 3 neddylation through covalent targeting DCN1 protects mice from acetaminophen-induced liver toxicity” (Nature Communications, 2021)
Where “and” joins values, the source holds several entries; their conditions need not be identical. Equal values may be shown once.

How the values were obtained:
HO-1 mRNA = experiment: RT-PCR, HO-1 mRNA in THLE2 cells; format: cell-based, human; details: for HO-1 mRNA level relative to control: THLE2, 10 nM, replicates
Protocol: Supplementary Figure 23. DI‐1859 increases the mRNA level of NRF2 ta rge te d genes NQO1 and
HO‐1. THLE2 cells we re treated with DI‐1859 at 10 nM fo r 4, 8 and 24 h. Tr e a t e d cells were
harvested and the mRNA level of HO‐1 and NQO1 we re exa m i n e d by RT‐PCR assay. The probes
Scientific (Ann Arbor, MI). Data are presented as mean values with n = 2 independent biological […]

[1] = system: APAP-induced liver injury; experiment: APAP-induced liver injury: alanine aminotransferase (ALT) level; format: in vivo, mouse; details: for reduction of the elevated ALT level induced by 400 mg/kg of APAP: 24 h time point
Protocol: The in vivo studies were performed under animal protocols (PRO00007499) and (PRO00006638) approved by the Institutional Animal Care & Use Committee of the University of Michigan, in accordance with the recommendations in the Guide for the Care and Use of Laboratory Animals of the National Institutes of Health. C57BL/6 WT mice (~8 weeks, male, normal chow) were purchased from the Jackson Laboratory and randomly divided into eight groups (8–9 mice per group) treated (IP) as follows: phosphate-buffered saline vehicle once per day for 3 days (G1), APAP alone a single dose at 400 mg/kg on day 1 (G2), DI-1859 alone 25 mg/kg once per day for 3 days (G3), DI-1859 alone 50 mg/kg once per day for 3 days (G4), pretreatment (1 day before the APAP administration) with DI-1859 at 25 mg/kg once per day for 3 days followed with APAP at 400 mg/kg on day (G5), pretreatment (1 day before the APAP administration) with DI-1859 at 50 mg/kg once per day for 3 days followed with APAP at 400 mg/kg on day (G6), APAP a single dose at 400 mg/kg (3 h before the first DI-1859 administration) followed with DI-1859 at 25 mg/Kg once per day for 3 days (G7), and APAP a single dose at 400 mg/kg (3 h before the first DI-1859 administration) followed with DI-1859 at 50 mg/Kg once per day for 3 days (G8).
To induce acute liver injury, animals received PBS or APAP (400 mg/kg, sigma, A7085) through I.P. injection at 12 p.m. and were sacrificed 48 h afterward. To examine the protective effect of DI-1859 (groups 5 and 6), animals were I.P. injected with compound for 3 consecutive days (9 a.m. on each day, starting 1 day before APAP administration). To examine the restorative effect of DI-1859 (groups 7 and 8), animals were I.P. injected with compound 3 h after APAP administration followed by two additional treatments (9 a.m. on the next 2 days). Body weight and blood glucose level measurement, along with blood sample collection, were performed at 12 p.m. on each day.
Blood glucose levels were determined using glucometers (Bayer Corp., Pittsburgh, PA). Plasma ALT activity was measured using an ALT reagent set (Pointe Scientific Inc., Canton, MI).

## C=C(CN(C)C)C(=O)NC[C@@H](NC(=O)[C@H](Cc1nc2ccc(C(C)C)cc2s1)NC(=O)CC)C1CCCCC1 [DI-1859]
HO-1 mRNA; 4 h (time from row order and b199)
  HO-1 mRNA level relative to control: 1.5 and 1.6
HO-1 mRNA; 8 h (time from row order and b199)
  HO-1 mRNA level relative to control: 1.7 and 1.9
HO-1 mRNA; 24 h (time from row order and b199)
  HO-1 mRNA level relative to control: 2.4 and 3.9
HO-1 mRNA; THLE2 liver cells, qRT-PCR
  increase of HO1 mRNA level: 3 folds
[1]; G3 PBS + Low, Time 0 hr
  ALT(IU/L) mean: 26.4101 IU/L
[1]; G3 PBS + Low, Time 24 hr
  ALT(IU/L) mean: 28.0781 IU/L
[1]; G4 PBS + High, Time 0 hr
  ALT(IU/L) mean: 28.6341 IU/L
[1]; G4 PBS + High, Time 24 hr
  ALT(IU/L) mean: 23.9081 IU/L
[1]; G5 APAP + Low-pre, Time 0 hr
  ALT(IU/L) mean: 32.3717 IU/L
[1]; G5 APAP + Low-pre, Time 24 hr
  ALT(IU/L) mean: 2856 IU/L
[1]; G5 APAP + Low-pre, Time 48 hr
  ALT(IU/L) mean: 171.99 IU/L
[1]; G6 APAP + H-pre, Time 0 hr
  ALT(IU/L) mean: 30.6419 IU/L
[1]; G6 APAP + H-pre, Time 24 hr
  ALT(IU/L) mean: 292.828 IU/L
[1]; G6 APAP + H-pre, Time 48 hr
  ALT(IU/L) mean: 49.2459 IU/L
[1]; G7 APAP + Low-post, Time 0 hr
  ALT(IU/L) mean: 30.889 IU/L
[1]; G7 APAP + Low-post, Time 24 hr
  ALT(IU/L) mean: 1341.82 IU/L
[1]; G7 APAP + Low-post, Time 48 hr
  ALT(IU/L) mean: 134.182 IU/L
[1]; G8 APAP + High-post, Time 0 hr
  ALT(IU/L) mean: 29.1592 IU/L
[1]; G8 APAP + High-post, Time 24 hr
  ALT(IU/L) mean: 1771.79 IU/L
[1]; G8 APAP + High-post, Time 48 hr
  ALT(IU/L) mean: 227.59 IU/L
[1]; prevention setting (G5), 25 mg/kg
  reduction of the elevated ALT level induced by 400 mg/kg of APAP: 20%
[1]; prevention setting (G6), 50 mg/kg
  reduction of the elevated ALT level induced by 400 mg/kg of APAP: 90% and > 90%
[1]; treatment setting (G7), 25 mg/kg after APAP
  reduction of the APAP-induced ALT elevations: ~ 50% and 50%
[1]; treatment setting (G8), 50 mg/kg after APAP
  reduction of the APAP-induced ALT elevations: ~ 50% and 50%
